Laboratory results published in ChEMBL document CHEMBL1201862, “PubChem BioAssay data set” (2004).
The source made the active and inactive calls.

Experiments:
Beta-lactamase [1] = biological target: Beta-lactamase (Salmonella choleraesuis (strain SC-B67), UniProt Q5J463); test: Epi-absorbance-based counterscreen for selective VIM-2 inhibitors: dose response biochemical high throughput screening assay to identify inhibitors of TEM-1 serine-beta-lactamase.
Beta-lactamase [2] = biological target: T1, Beta-lactamase (Pseudomonas aeruginosa, UniProt Q79MP6); test: inhibition of IMP-1 beta-lactamase activity – biochemical, epi-absorbance, selectivity assay for VIM-2 inhibitor project, dose response (AID 1920)
T1 sequence (Q79MP6 whole entry): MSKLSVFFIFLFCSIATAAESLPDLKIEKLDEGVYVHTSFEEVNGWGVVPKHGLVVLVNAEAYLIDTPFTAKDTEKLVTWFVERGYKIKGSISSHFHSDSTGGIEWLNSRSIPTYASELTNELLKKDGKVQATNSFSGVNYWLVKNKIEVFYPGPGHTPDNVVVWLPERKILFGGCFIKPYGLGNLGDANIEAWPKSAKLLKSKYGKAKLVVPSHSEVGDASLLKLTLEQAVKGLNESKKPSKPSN

Beta-lactamase [3] = biological target: T1, Beta-lactamase; test: […] counterscreen for selective VIM-2 inhibitors: dose response biochemical high throughput screening assay to identify inhibitors of IMP-1 metallo-beta-lactamase.
[4] = Fluorescence-based cell-based high throughput dose response assay for inhibitors of the interaction of nucleotide-binding oligomerization domain containing 2 (NOD2) and the receptor-interacting serine-threonine kinase 2 (RIPK2).; type: functional; details: Homo sapiens
Beta Lactamase = Beta Lactamase (Pseudomonas aeruginosa, UniProt Q932Y6); test: BLA reporter interference, concentration series – BLA reporter cells, FRET fluorescence, artefact control for NOD2-RIPK2 interaction inhibitor project, dose response (AID 651552); type: functional, cell-based
Sequence of Beta Lactamase (Q932Y6 whole entry): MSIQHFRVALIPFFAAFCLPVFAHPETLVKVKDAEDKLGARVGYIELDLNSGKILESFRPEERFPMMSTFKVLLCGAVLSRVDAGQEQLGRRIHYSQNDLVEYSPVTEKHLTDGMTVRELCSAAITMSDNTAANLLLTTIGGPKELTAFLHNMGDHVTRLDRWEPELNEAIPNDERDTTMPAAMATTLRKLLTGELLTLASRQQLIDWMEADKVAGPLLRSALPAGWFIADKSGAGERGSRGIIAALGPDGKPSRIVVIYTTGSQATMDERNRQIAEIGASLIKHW

[5] = biological target: Glucose-6-phosphate 1-dehydrogenase (Homo sapiens, UniProt P11413); test: inhibition of Homo sapiens G6PD, dose series – biochemical, fluorescence, selectivity assay for P. falciparum G6PD inhibitor project, dose response (AID 504792); type: functional
Sequence of Glucose-6-phosphate 1-dehydrogenase (P11413 whole entry): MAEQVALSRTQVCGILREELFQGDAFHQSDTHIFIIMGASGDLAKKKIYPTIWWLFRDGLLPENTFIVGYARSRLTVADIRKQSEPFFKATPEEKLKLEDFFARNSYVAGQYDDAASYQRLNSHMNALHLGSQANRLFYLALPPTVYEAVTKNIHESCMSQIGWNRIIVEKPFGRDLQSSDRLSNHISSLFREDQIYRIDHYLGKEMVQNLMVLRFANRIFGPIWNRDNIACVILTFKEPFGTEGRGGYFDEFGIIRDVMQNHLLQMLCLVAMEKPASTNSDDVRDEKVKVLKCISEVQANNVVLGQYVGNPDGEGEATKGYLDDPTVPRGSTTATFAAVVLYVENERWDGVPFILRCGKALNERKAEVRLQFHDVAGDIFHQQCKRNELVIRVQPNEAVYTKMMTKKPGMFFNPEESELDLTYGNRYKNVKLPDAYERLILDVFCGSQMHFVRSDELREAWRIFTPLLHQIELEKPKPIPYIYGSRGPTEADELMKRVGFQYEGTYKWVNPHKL

[6] = biological target: Mitochondrial peptide methionine sulfoxide reductase (Bos taurus, UniProt P54149); type: functional;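 further: absorbance read-out, biochemical high-throughput dose-response screen for MsrA inhibitors, confirmatory; recombinant bovine MsrA coupled to E. coli TrxB with NADPH and selenocystamine; potency is for inhibitors of MsrA activity on DMSO substrate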
Sequence of Mitochondrial peptide methionine sulfoxide reductase (P54149 whole entry): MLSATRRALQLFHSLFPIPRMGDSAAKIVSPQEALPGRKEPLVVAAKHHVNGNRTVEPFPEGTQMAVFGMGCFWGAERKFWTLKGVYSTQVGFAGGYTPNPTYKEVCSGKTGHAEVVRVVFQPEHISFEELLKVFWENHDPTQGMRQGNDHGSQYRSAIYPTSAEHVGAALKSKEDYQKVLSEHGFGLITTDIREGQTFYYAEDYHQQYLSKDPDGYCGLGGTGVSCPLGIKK

Paired box protein Pax-8 = Paired box protein Pax-8 (Homo sapiens, UniProt Q06710); test: PAX8 transcriptional activity inhibition in RMG-I – RMG-I cells, luciferase, cherry-pick, dose response (AID 687027); type: functional, cell-based;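 further: luciferase reporter driven by Pax8 target thyroperoxidase promoter measured by SteadyGlo luminescence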
Sequence of Paired box protein Pax-8 (Q06710 whole entry): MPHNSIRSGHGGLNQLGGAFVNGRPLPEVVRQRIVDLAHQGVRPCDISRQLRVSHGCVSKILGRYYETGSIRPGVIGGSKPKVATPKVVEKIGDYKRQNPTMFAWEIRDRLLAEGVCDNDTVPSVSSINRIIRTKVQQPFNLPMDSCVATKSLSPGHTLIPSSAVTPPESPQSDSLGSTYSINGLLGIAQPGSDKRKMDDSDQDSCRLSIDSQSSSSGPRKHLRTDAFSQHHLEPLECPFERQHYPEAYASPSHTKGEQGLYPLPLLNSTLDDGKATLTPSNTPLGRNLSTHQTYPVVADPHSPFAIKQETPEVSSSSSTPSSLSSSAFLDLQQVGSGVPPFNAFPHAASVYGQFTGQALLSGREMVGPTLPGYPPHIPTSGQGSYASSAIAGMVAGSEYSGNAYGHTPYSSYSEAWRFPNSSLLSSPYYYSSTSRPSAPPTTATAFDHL

[7] = A549 cell cytotoxicity, dose response, cytotoxicity control, plate reader, cherry-pick, antagonist series (AID 743412); type: functional, cell-based
[8] = toxicity toward HepG2 liver cells – cell-based, plate reader, cherry-pick, antagonist series, cytotoxicity control, dose response (AID 743416); type: functional
[9] = blockers of bursicon-stimulated LGR2 cAMP reporter – cell-based, HEK293, CRE-luciferase reporter, cherry pick, set 2, dose response (AID 743343); type: functional;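 further: transfected cells were stimulated with diluted bursicon conditioned medium after compound addition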
[10] = general cell-killing toxicity readout – plate reader, dry powder samples, cytotoxicity control for PAX8 inhibitor project, dose response (AID 743021); type: functional, cell-based
[11] = blockade of melanocortin 4 receptor signaling – cell-based, plate reader, cherry pick, counter-screen for LGR2 antagonist project, dose response (AID 743444); type: functional;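 further: transfected HEK 293 cells stimulated with alpha-MSH peptide; potency of inhibitors of the alpha-MSH evoked signal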
[12] = viability loss in HEK293 cells – cell-based, plate reader, cherry-picked samples, cytotoxicity control, dose response (AID 743446); type: functional
[13] = biological target: T2, Sentrin-specific protease 8 (Homo sapiens, UniProt Q96LD8); type: functional
T2 sequence (Q96LD8 whole entry): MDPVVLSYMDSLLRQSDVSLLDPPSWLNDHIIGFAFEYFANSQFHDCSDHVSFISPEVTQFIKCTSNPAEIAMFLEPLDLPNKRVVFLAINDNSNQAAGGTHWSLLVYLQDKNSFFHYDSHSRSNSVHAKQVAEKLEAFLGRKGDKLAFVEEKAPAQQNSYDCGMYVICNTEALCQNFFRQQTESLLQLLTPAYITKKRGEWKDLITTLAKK

[14] = biological target: T2, Sentrin-specific protease 8; type: functional; remark: listed apart in the source
[15] = viability of uninfected HEp-2 cells – cell-based, HTS, cytotoxicity control for RSV inhibitor project, dose response (AID 2410); type: functional; details: human respiratory syncytial virus
Beta-galactosidase = Beta-galactosidase (Escherichia coli, UniProt Q8VNN2); test: Dose response counterscreen for EBI2 assay utilizing the enzyme, b-galactosidase.; type: functional
Sequence of Beta-galactosidase (Q8VNN2 whole entry): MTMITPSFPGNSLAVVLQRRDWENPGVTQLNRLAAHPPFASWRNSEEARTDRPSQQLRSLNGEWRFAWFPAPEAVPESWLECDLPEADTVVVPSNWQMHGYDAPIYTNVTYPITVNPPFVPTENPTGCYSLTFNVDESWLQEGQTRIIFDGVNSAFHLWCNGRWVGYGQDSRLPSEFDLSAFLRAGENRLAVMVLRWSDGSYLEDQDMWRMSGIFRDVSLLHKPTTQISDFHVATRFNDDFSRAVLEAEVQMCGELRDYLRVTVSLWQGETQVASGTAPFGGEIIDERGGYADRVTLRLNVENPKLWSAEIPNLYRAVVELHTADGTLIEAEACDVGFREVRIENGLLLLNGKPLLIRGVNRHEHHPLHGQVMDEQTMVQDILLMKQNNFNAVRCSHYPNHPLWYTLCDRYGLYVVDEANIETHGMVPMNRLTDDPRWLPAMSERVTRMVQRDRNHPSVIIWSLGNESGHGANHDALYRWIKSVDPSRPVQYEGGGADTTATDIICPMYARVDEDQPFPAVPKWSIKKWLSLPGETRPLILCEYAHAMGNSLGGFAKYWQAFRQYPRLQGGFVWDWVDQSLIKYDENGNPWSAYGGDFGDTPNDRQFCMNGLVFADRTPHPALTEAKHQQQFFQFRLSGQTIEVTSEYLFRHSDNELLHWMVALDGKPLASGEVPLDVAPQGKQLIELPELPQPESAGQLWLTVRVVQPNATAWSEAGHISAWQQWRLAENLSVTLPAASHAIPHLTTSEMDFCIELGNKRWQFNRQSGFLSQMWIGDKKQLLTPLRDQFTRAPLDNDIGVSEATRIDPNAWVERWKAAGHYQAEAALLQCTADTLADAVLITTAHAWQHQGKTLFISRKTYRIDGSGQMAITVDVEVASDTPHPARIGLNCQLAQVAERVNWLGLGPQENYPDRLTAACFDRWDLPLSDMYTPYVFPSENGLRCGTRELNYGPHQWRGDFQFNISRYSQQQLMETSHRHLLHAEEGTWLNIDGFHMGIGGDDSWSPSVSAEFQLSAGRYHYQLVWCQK

Melanocortin receptor 4 = Melanocortin receptor 4 (Homo sapiens, UniProt P32245); type: functional, cell-based;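 further: Cell-based assay with luminescence read-out, confirmatory dose-response testing for agonist activity of biased ligands at MC4R; human U2OS cells with tagged receptor and beta-arrestin; potency of agonists that increase receptor coupling to beta-arrestin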
Sequence of Melanocortin receptor 4 (P32245 whole entry): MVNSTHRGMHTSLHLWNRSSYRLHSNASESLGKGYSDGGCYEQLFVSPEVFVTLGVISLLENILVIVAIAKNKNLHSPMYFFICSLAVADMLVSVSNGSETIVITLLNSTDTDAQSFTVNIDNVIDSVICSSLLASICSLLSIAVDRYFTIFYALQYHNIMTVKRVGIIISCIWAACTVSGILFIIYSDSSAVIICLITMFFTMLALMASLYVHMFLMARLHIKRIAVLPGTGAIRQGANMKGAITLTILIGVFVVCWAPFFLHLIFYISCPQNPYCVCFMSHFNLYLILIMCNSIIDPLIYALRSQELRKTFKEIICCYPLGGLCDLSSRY

[16] = biological target: Long-chain-fatty-acid--AMP ligase FadD28 (Mycobacterium tuberculosis, UniProt P9WQ59); test: Fluorescence polarization aasay to screen for inhibitors that compete for the binding of FadD28 to a bisubstrate Measured in Biochemical System Using Plate Reader - 2147-01_Inhibitor_Dose_CherryPick_Activity.; type: functional, Mycobacterium tuberculosis H37Rv
Sequence of Long-chain-fatty-acid--AMP ligase FadD28 (P9WQ59 whole entry): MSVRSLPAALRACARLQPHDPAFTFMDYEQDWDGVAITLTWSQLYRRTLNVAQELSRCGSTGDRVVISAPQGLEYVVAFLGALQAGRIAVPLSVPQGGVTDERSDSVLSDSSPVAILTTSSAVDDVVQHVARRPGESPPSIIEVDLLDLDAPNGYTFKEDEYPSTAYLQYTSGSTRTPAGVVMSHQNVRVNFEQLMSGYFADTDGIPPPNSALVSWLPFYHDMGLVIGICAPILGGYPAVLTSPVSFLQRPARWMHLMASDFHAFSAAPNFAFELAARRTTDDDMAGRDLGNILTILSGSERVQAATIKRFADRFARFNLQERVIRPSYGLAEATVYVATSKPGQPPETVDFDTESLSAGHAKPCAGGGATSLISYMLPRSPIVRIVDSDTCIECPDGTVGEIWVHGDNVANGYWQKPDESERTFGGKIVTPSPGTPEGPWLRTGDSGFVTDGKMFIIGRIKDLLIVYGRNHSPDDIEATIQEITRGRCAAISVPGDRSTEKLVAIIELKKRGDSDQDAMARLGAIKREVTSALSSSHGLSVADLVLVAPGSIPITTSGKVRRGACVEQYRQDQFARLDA

Sequence of Beta-lactamase (Salmonella choleraesuis (strain SC-B67), UniProt Q5J463) (Q5J463 whole entry): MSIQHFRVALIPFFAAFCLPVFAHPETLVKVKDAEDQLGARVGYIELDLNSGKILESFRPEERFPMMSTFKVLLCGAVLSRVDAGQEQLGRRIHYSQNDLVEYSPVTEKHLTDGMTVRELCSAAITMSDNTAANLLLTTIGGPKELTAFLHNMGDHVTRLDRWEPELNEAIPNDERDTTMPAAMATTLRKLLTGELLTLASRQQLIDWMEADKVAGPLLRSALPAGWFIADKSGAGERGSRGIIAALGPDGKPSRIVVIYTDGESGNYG

**Q.** Which IC50 (Beta-lactamase [1]) does the source give for Cc1cccc(-n2c(C)nnc2S)c1C here?
**A.** The IC50 was > 59.6 µM (inactive).

**Q.** And the IC50 (Beta-lactamase [2])?
**A.** The IC50 was > 59.6 µM (inactive).

**Q.** What about the IC50 (Beta-lactamase [3]) of the same molecule?
**A.** The IC50 was > 59.6 µM (inactive).

**Q.** Which IC50 [4] does the source give for CC(=O)O/N=C1C=C/C(=C(\C#N)c2ccccc2)C=C/1 here?
**A.** The IC50 was 5.83 µM (active).

**Q.** And the IC50 (Beta Lactamase)?
**A.** Its IC50 is 49.8 µM (inactive).

**Q.** Which IC50 [5] does the source give for Cc1ccc(Cl)cc1N=C1C=C(NS(=O)(=O)c2cccs2)c2ccccc2C1=O here?
**A.** The IC50 was > 80 µM (inactive).

**Q.** What about the IC50 [6] of the same molecule?
**A.** Its IC50 is 155 µM (inactive).

**Q.** And the AC50 (Paired box protein Pax-8)?
**A.** The AC50 was 4.82 µM (active).

**Q.** And the AC50 [7]?
**A.** Its AC50 is 10.1 µM (active).

**Q.** What about the AC50 [8] of the same molecule?
**A.** Its AC50 is 8 µM (active).

**Q.** And the AC50 [9]?
**A.** The AC50 was 4.71 µM (active).

**Q.** And the AC50 [10]?
**A.** Its AC50 is 17.2 µM (active).

**Q.** What about the AC50 [11] of the same molecule?
**A.** Its AC50 is 5.09 µM (active).

**Q.** What about the AC50 [12] of the same molecule?
**A.** Its AC50 is 7.88 µM (active).

**Q.** With Cn1c(NNC(=O)c2c(F)cccc2F)cc(=O)n(C)c1=O as the molecule, how does the IC50 [13] read?
**A.** Its IC50 is 28 µM (active).

**Q.** What about the IC50 [14] of the same molecule?
**A.** Its IC50 is 12.5 µM (active).

**Q.** Which results are given for COc1ccc(-c2cc3nc(-c4ccccc4)cc(N4CCC(O)CC4)n3n2)cc1?
**A.** CC50 [15]: 17 µM (active); IC50 (Beta-galactosidase): > 80 µM (inactive); IC50 (cells): 34.9 µM (active)

**Q.** Which EC50 (Melanocortin receptor 4) does the source give for N#Cc1sc2nc(-c3cccs3)cc(-c3ccc(F)cc3)c2c1N here?
**A.** The EC50 was > 89.2 µM (inactive).

**Q.** With CC(C)(C)c1ccc(NC(=O)Nc2ccc(OCC(=O)N3CCOCC3)cc2)cc1 as the molecule, how does the AC50 [16] read?
**A.** Its AC50 is 41.4 µM (active).
